# Measurements published in ChEMBL document CHEMBL1201862, “PubChem BioAssay data set” (2004).
#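 Compound exposure: 48 hours, 5 concentrations, 96-well plates. GI50 = concentration required for 50% inhibition of growth.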 Activity calls are given as the source filed them. Rule as the data show it: active = GI50 up to about 1.1 µM and inactive = higher.
# Tests used:
# Assay in all cases: growth of human tumour cells (NCI), 48 h
# XF498 = test system: XF498
# CCRF-CEM = test system: CCRF-CEM
# M19-MEL = test system: M19-MEL
# Malme-3M = test system: Malme-3M
# HOP-62 = test system: HOP-62
# MOLT-4 = test system: MOLT-4
# RPMI-8226 = test system: RPMI-8226
# HCC 2998 = test system: HCC 2998
# DLD-1 = test system: DLD-1
# A549 = test system: A549
# A498 = test system: A498
# TK-10 = test system: TK-10
# U-251 = test system: U-251
# SK-MEL-2 = test system: SK-MEL-2
# HT-29 = test system: HT-29
# IGROV-1 = test system: IGROV-1
# SNB-75 = test system: SNB-75
# SF-295 = test system: SF-295
# UO-31 = test system: UO-31
# LOX IMVI = test system: LOX IMVI
# SK-MEL-28 = test system: SK-MEL-28
# CAKI-1 = test system: CAKI-1
# OVCAR-5 = test system: OVCAR-5
# SK-OV-3 = test system: SK-OV-3
# KM12 = test system: KM12
# OVCAR-3 = test system: OVCAR-3
# HOP-92 = test system: HOP-92
# SNB-19 = test system: SNB-19
# OVCAR-4 = test system: OVCAR-4
# NCI-H460 = test system: NCI-H460
# SW-620 = test system: SW-620
# UACC-62 = test system: UACC-62
# SK-MEL-5 = test system: SK-MEL-5
# UACC-257 = test system: UACC-257
# SF-539 = test system: SF-539
# 786-0 = test system: 786-0
# HCT-15 = test system: HCT-15
# M14 = test system: M14
# NCI-H522 = test system: NCI-H522
# NCI-H226 = test system: NCI-H226
# SNB-78 = test system: SNB-78
# ACHN = test system: ACHN
# LXFL 529 = test system: LXFL 529
# RXF 393 = test system: RXF 393
# NCI-H23 = test system: NCI-H23
# SF-268 = test system: SF-268
# K562 = test system: K562
# DMS-273 = test system: DMS-273
# COLO 205 = test system: COLO 205
# OVCAR-8 = test system: OVCAR-8
# EKVX = test system: EKVX
# HL-60 = test system: HL-60
# SR = test system: SR
# HCT-116 = test system: HCT-116
# KM-20L2 = test system: KM-20L2
# DMS-114 = test system: DMS-114
# SN12C = test system: SN12C
compound,measurement,setting,value
CSC1CC2C(CC1(C)SC)C2(C)C (stereo not given),GI50,XF498,19.7 µM (inactive)
same,GI50,CCRF-CEM,28.2 µM (inactive)
same,GI50,M19-MEL,37.2 µM (inactive)
same,GI50,Malme-3M,41.8 µM (inactive)
same,GI50,HOP-62,> 100 µM (inactive)
same,GI50,MOLT-4,22.6 µM (inactive)
same,GI50,RPMI-8226,24.3 µM (inactive)
same,GI50,HCC 2998,87.1 µM (inactive)
same,GI50,DLD-1,58.1 µM (inactive)
same,GI50,A549,32.7 µM (inactive)
same,GI50,A498,> 100 µM (inactive)
same,GI50,TK-10,> 100 µM (inactive)
same,GI50,U-251,32.1 µM (inactive)
same,GI50,SK-MEL-2,23.2 µM (inactive)
same,GI50,HT-29,38.8 µM (inactive)
same,GI50,IGROV-1,42.8 µM (inactive)
same,GI50,SNB-75,23.2 µM (inactive)
same,GI50,SF-295,30.8 µM (inactive)
same,GI50,UO-31,19.9 µM (inactive)
same,GI50,LOX IMVI,30.7 µM (inactive)
same,GI50,SK-MEL-28,> 100 µM (inactive)
same,GI50,CAKI-1,> 100 µM (inactive)
same,GI50,OVCAR-5,40.8 µM (inactive)
same,GI50,SK-OV-3,39.9 µM (inactive)
same,GI50,KM12,48.2 µM (inactive)
same,GI50,OVCAR-3,37.9 µM (inactive)
same,GI50,HOP-92,16.3 µM (inactive)
same,GI50,SNB-19,46.9 µM (inactive)
same,GI50,OVCAR-4,62.8 µM (inactive)
same,GI50,NCI-H460,23.9 µM (inactive)
same,GI50,SW-620,> 100 µM (inactive)
same,GI50,UACC-62,60.7 µM (inactive)
same,GI50,SK-MEL-5,24.4 µM (inactive)
same,GI50,UACC-257,29.9 µM (inactive)
same,GI50,SF-539,> 100 µM (inactive)
same,GI50,786-0,64.9 µM (inactive)
same,GI50,HCT-15,51.3 µM
same,GI50,M14,92 µM (inactive)
same,GI50,NCI-H522,> 100 µM (inactive)
same,GI50,NCI-H226,24.7 µM (inactive)
same,GI50,SNB-78,74.3 µM (inactive)
same,GI50,ACHN,> 100 µM (inactive)
same,GI50,LXFL 529,> 100 µM (inactive)
same,GI50,RXF 393,56.5 µM (inactive)
same,GI50,NCI-H23,61.7 µM (inactive)
same,GI50,SF-268,> 100 µM (inactive)
same,GI50,K562,24.3 µM (inactive)
same,GI50,DMS-273,45.4 µM (inactive)
same,GI50,COLO 205,37.3 µM (inactive)
same,GI50,OVCAR-8,39.5 µM (inactive)
same,GI50,EKVX,30.2 µM (inactive)
same,GI50,HL-60,20.2 µM (inactive)
same,GI50,SR,30.8 µM (inactive)
Cc1cc(-c2ccccc2)nc(Nc2nc3ccccc3o2)n1,GI50,XF498,> 100 µM (inactive)
same,GI50,CCRF-CEM,74 µM (inactive)
same,GI50,M19-MEL,> 100 µM (inactive)
same,GI50,HCT-116,> 100 µM (inactive)
same,GI50,Malme-3M,> 100 µM (inactive)
same,GI50,HOP-62,> 100 µM (inactive)
same,GI50,MOLT-4,> 100 µM (inactive)
same,GI50,RPMI-8226,> 100 µM (inactive)
same,GI50,HCC 2998,> 100 µM (inactive)
same,GI50,DLD-1,> 100 µM (inactive)
same,GI50,A549,> 100 µM (inactive)
same,GI50,A498,> 100 µM (inactive)
same,GI50,TK-10,> 100 µM (inactive)
same,GI50,U-251,> 100 µM (inactive)
same,GI50,SK-MEL-2,> 100 µM (inactive)
same,GI50,HT-29,> 100 µM (inactive)
same,GI50,IGROV-1,> 100 µM (inactive)
same,GI50,SF-295,> 100 µM (inactive)
same,GI50,UO-31,> 100 µM (inactive)
same,GI50,LOX IMVI,> 100 µM (inactive)
same,GI50,SK-MEL-28,> 100 µM (inactive)
same,GI50,KM-20L2,> 100 µM (inactive)
same,GI50,CAKI-1,> 100 µM (inactive)
same,GI50,OVCAR-5,> 100 µM (inactive)
same,GI50,SK-OV-3,> 100 µM (inactive)
same,GI50,KM12,> 100 µM (inactive)
same,GI50,OVCAR-3,> 100 µM (inactive)
same,GI50,HOP-92,89.3 µM (inactive)
same,GI50,SNB-19,> 100 µM (inactive)
same,GI50,OVCAR-4,> 100 µM (inactive)
same,GI50,NCI-H460,> 100 µM (inactive)
same,GI50,DMS-114,> 100 µM (inactive)
same,GI50,SW-620,> 100 µM (inactive)
same,GI50,UACC-62,> 100 µM (inactive)
same,GI50,SK-MEL-5,> 100 µM (inactive)
same,GI50,UACC-257,> 100 µM (inactive)
same,GI50,SN12C,> 100 µM (inactive)
same,GI50,SF-539,> 100 µM (inactive)
same,GI50,786-0,> 100 µM (inactive)
same,GI50,HCT-15,> 100 µM
same,GI50,M14,> 100 µM (inactive)
same,GI50,NCI-H522,> 100 µM (inactive)
same,GI50,NCI-H226,> 100 µM (inactive)
same,GI50,SNB-78,> 100 µM (inactive)
same,GI50,ACHN,> 100 µM (inactive)
same,GI50,LXFL 529,> 100 µM (inactive)
same,GI50,NCI-H23,> 100 µM (inactive)
same,GI50,SF-268,> 100 µM (inactive)
same,GI50,K562,> 100 µM (inactive)
same,GI50,COLO 205,> 100 µM (inactive)
same,GI50,OVCAR-8,> 100 µM (inactive)
same,GI50,EKVX,> 100 µM (inactive)
same,GI50,HL-60,> 100 µM (inactive)
same,GI50,SR,> 100 µM (inactive)
CN1C/C(=C\c2ccco2)c2nc(N)nc(-c3ccco3)c2C1,GI50,XF498,23.6 µM (inactive)
same,GI50,CCRF-CEM,74.1 µM (inactive)
same,GI50,M19-MEL,> 100 µM (inactive)
same,GI50,HCT-116,> 100 µM (inactive)
same,GI50,Malme-3M,> 100 µM (inactive)
same,GI50,HOP-62,> 100 µM (inactive)
same,GI50,MOLT-4,48.9 µM (inactive)
same,GI50,RPMI-8226,31.7 µM (inactive)
same,GI50,HCC 2998,> 100 µM (inactive)
same,GI50,DLD-1,> 100 µM (inactive)
same,GI50,A549,> 100 µM (inactive)
same,GI50,A498,> 100 µM (inactive)
same,GI50,TK-10,> 100 µM (inactive)
same,GI50,U-251,> 100 µM (inactive)
same,GI50,SK-MEL-2,> 100 µM (inactive)
same,GI50,HT-29,99.8 µM (inactive)
same,GI50,IGROV-1,> 100 µM (inactive)
same,GI50,SNB-75,85.3 µM (inactive)
same,GI50,SF-295,> 100 µM (inactive)
same,GI50,UO-31,> 100 µM (inactive)
same,GI50,LOX IMVI,60.4 µM (inactive)
same,GI50,SK-MEL-28,> 100 µM (inactive)
same,GI50,KM-20L2,> 100 µM (inactive)
same,GI50,CAKI-1,> 100 µM (inactive)
same,GI50,OVCAR-5,> 100 µM (inactive)
same,GI50,SK-OV-3,> 100 µM (inactive)
same,GI50,KM12,31.5 µM (inactive)
same,GI50,OVCAR-3,43.9 µM (inactive)
same,GI50,SNB-19,> 100 µM (inactive)
same,GI50,NCI-H460,> 100 µM (inactive)
same,GI50,DMS-114,> 100 µM (inactive)
same,GI50,SW-620,> 100 µM (inactive)
same,GI50,UACC-62,> 100 µM (inactive)
same,GI50,SK-MEL-5,72.8 µM (inactive)
same,GI50,UACC-257,> 100 µM (inactive)
same,GI50,SN12C,> 100 µM (inactive)
same,GI50,SF-539,> 100 µM (inactive)
same,GI50,786-0,> 100 µM (inactive)
same,GI50,HCT-15,> 100 µM
same,GI50,M14,> 100 µM (inactive)
same,GI50,NCI-H522,> 100 µM (inactive)
same,GI50,NCI-H226,34.5 µM (inactive)
same,GI50,ACHN,> 100 µM (inactive)
same,GI50,LXFL 529,74.1 µM (inactive)
same,GI50,RXF 393,> 100 µM (inactive)
same,GI50,NCI-H23,> 100 µM (inactive)
same,GI50,SF-268,> 100 µM (inactive)
same,GI50,K562,> 100 µM (inactive)
same,GI50,DMS-273,88.1 µM (inactive)
same,GI50,COLO 205,> 100 µM (inactive)
same,GI50,OVCAR-8,75.2 µM (inactive)
same,GI50,EKVX,> 100 µM (inactive)
same,GI50,HL-60,52.7 µM (inactive)
